Data taken from patent US20040102325A1, “Phenylpropynyloxypyridine herbicides” (priority 2000, published 2004).

How the values were obtained:
Type in all cases: in vivo
[1] = system: Setaria; assay: Pre-emergence herbicidal action, Setaria; parameters: key: 1=total damage; 9=no action; details: 1000 g a.i./ha, 4 weeks, scale of nine ratings (1=total damage, 9=no action)
Description: (§1) Monocotyledonous and dicotyledonous test plants are sown in standard soil in pots. Immediately after sowing, an aqueous suspension of the test compounds (prepared from a wettable powder (Example F3, b) according to WO 97/34485) or an emulsion of the test compounds (prepared from an emulsifiable concentrate (Example F1, c) according to WO 97/34485) is applied by spraying at an optimum rate of application (500 litres of water/ha). The test plants are then cultivated in a greenhouse under optimum conditions. After a test duration of 4 weeks, the test is evaluated in accordance with a scale of nine ratings (1=total damage, 9=no action). Ratings of from 1 to 4 (especially from 1 to 3) indicate good to very good herbicidal action. Test plants: Setaria, Panicum, Digitaria, Amaranthus, Stellaria, Veronica.

[2] = system: Panicum; assay: Pre-emergence herbicidal action, Panicum; parameters: key: 1=total damage; 9=no action; details: 1000 g a.i./ha, 4 weeks, scale of nine ratings (1=total damage, 9=no action)
Description: as §1

[3] = system: Digitaria; assay: Pre-emergence herbicidal action, Digitaria; parameters: key: 1=total damage; 9=no action; details: 1000 g a.i./ha, 4 weeks, scale of nine ratings (1=total damage, 9=no action)
Description: as §1

[4] = system: Amaranthus; assay: Pre-emergence herbicidal action, Amaranthus; parameters: key: 1=total damage; 9=no action; details: 1000 g a.i./ha, 4 weeks, scale of nine ratings (1=total damage, 9=no action)
Description: as §1

[5] = system: Stellaria; assay: Pre-emergence herbicidal action, Stellaria; parameters: key: 1=total damage; 9=no action; details: 1000 g a.i./ha, 4 weeks, scale of nine ratings (1=total damage, 9=no action)
Description: as §1

[6] = system: Veronica; assay: Pre-emergence herbicidal action, Veronica; parameters: key: 1=total damage; 9=no action; details: 1000 g a.i./ha, 4 weeks, scale of nine ratings (1=total damage, 9=no action)
Description: as §1

[7] = system: Panicum; assay: Post-emergence herbicidal action, Panicum; details: post-emergence (2- to 3-leaf stage), 1000 g a.i/ha, 2 to 3 weeks, scale of nine ratings (1=total damage, 9=no action)
Procedure: (§2) Monocotyledonous and dicotyledonous test plants are sown in standard soil in pots, and at the 2- to 3-leaf stage are sprayed with an aqueous suspension of the test compounds (prepared from a wettable powder (Example F3, b) according to WO 97/34485) or with an emulsion of the test compounds (prepared from an emulsifiable concentrate (Example F1, c) according to WO 97/34485) at an optimum rate of application of 500 litres of water/ha). The test plants are then grown on in the greenhouse under optimum conditions. After a test duration of 2 to 3 weeks, the test is evaluated in accordance with a scale of nine ratings (1=total damage, 9=no action). Ratings of from 1 to 4 (especially from 1 to 3) indicate good to very good herbicidal action. Test plants: Panicum, Euphorbia, Sida, Amaranthus, Chenopodium, Stellaria, Veronica.

[8] = system: Euphorbia; assay: Post-emergence herbicidal action, Euphorbia; parameters: key: 1=total damage; 9=no action; details: post-emergence (2- to 3-leaf stage), 1000 g a.i/ha, 2 to 3 weeks, scale of nine ratings (1=total damage, 9=no action)
Procedure: as §2

[9] = system: Sida; assay: Post-emergence herbicidal action, Sida; details: post-emergence (2- to 3-leaf stage), 1000 g a.i/ha, 2 to 3 weeks, scale of nine ratings (1=total damage, 9=no action)
Procedure: as §2

[10] = system: Amaranthus; assay: Post-emergence herbicidal action, Amaranthus; parameters: key: 1=total damage; 9=no action; details: post-emergence (2- to 3-leaf stage), 1000 g a.i/ha, 2 to 3 weeks, scale of nine ratings (1=total damage, 9=no action)
Procedure: as §2

[11] = system: Chenopodium; assay: Post-emergence herbicidal action, Chenopodium; parameters: key: 1=total damage; 9=no action; details: post-emergence (2- to 3-leaf stage), 1000 g a.i/ha, 2 to 3 weeks, scale of nine ratings (1=total damage, 9=no action)
Procedure: as §2

[12] = system: Stellaria; assay: Post-emergence herbicidal action, Stellaria; parameters: key: 1=total damage; 9=no action; details: post-emergence (2- to 3-leaf stage), 1000 g a.i/ha, 2 to 3 weeks, scale of nine ratings (1=total damage, 9=no action)
Procedure: as §2

[13] = system: Veronica; assay: Post-emergence herbicidal action, Veronica; details: post-emergence (2- to 3-leaf stage), 1000 g a.i/ha, 2 to 3 weeks, scale of nine ratings (1=total damage, 9=no action)
Procedure: as §2

Compound: COc1cc(Br)cnc1OCC#Cc1cccc(CC#N)c1 [1.017]
- Setaria, herbicidal action rating [1]: 5
- Panicum, herbicidal action rating [2]: 2
- Digitaria, herbicidal action rating [3]: 2
- Amaranthus, herbicidal action rating [4]: 1
- Stellaria, herbicidal action rating [5]: 1
- Veronica, herbicidal action rating [6]: 2
- Panicum, herbicidal action rating [7]: 4
- Euphorbia, herbicidal action rating [8]: 1
- Sida, herbicidal action rating [9]: 2
- Amaranthus, herbicidal action rating [10]: 2
- Chenopodium, herbicidal action rating [11]: 1
- Stellaria, herbicidal action rating [12]: 1
- Veronica, herbicidal action rating [13]: 2

Compound: COc1cc(C)cnc1OCC#Cc1cccc(CC#N)c1 [1.022]
- Panicum, herbicidal action rating [2]: 2
- Amaranthus, herbicidal action rating [4]: 1
- Stellaria, herbicidal action rating [5]: 2
- Veronica, herbicidal action rating [6]: 1
- Panicum, herbicidal action rating [7]: 6
- Euphorbia, herbicidal action rating [8]: 2
- Sida, herbicidal action rating [9]: 3
- Amaranthus, herbicidal action rating [10]: 3
- Chenopodium, herbicidal action rating [11]: 3
- Stellaria, herbicidal action rating [12]: 4
- Veronica, herbicidal action rating [13]: 3

Compound: Cc1ccc(OC(F)F)c(OCC#Cc2cccc(CC#N)c2)n1 [1.024]
- Setaria, herbicidal action rating [1]: 1
- Amaranthus, herbicidal action rating [4]: 1
- Stellaria, herbicidal action rating [5]: 1
- Veronica, herbicidal action rating [6]: 1
- Euphorbia, herbicidal action rating [8]: 2
- Sida, herbicidal action rating [9]: 2
- Amaranthus, herbicidal action rating [10]: 1
- Chenopodium, herbicidal action rating [11]: 1
- Stellaria, herbicidal action rating [12]: 1
- Veronica, herbicidal action rating [13]: 3

Compound: N#CCc1cccc(C#CCOc2ncc(Cl)cc2OC(F)F)c1 [1.025]
- Setaria, herbicidal action rating [1]: 1
- Panicum, herbicidal action rating [2]: 1
- Digitaria, herbicidal action rating [3]: 2
- Amaranthus, herbicidal action rating [4]: 1
- Stellaria, herbicidal action rating [5]: 1
- Veronica, herbicidal action rating [6]: 1
- Euphorbia, herbicidal action rating [8]: 2
- Sida, herbicidal action rating [9]: 3
- Amaranthus, herbicidal action rating [10]: 2
- Chenopodium, herbicidal action rating [11]: 7
- Stellaria, herbicidal action rating [12]: 4
- Veronica, herbicidal action rating [13]: 4

Compound: CSc1cccnc1OCC#Cc1cccc(CC#N)c1 [1.047]
- Setaria, herbicidal action rating [1]: 1
- Panicum, herbicidal action rating [2]: 2
- Digitaria, herbicidal action rating [3]: 1
- Amaranthus, herbicidal action rating [4]: 1
- Stellaria, herbicidal action rating [5]: 1
- Veronica, herbicidal action rating [6]: 4
- Panicum, herbicidal action rating [7]: 4
- Euphorbia, herbicidal action rating [8]: 1
- Sida, herbicidal action rating [9]: 3
- Amaranthus, herbicidal action rating [10]: 2
- Chenopodium, herbicidal action rating [11]: 1
- Stellaria, herbicidal action rating [12]: 1
- Veronica, herbicidal action rating [13]: 3

Compound: COc1cc(Cl)cnc1OCC#Cc1ccccc1 [1.094]
- Amaranthus, herbicidal action rating [4]: 3
- Stellaria, herbicidal action rating [5]: 1
- Veronica, herbicidal action rating [6]: 1
- Panicum, herbicidal action rating [7]: 2
- Euphorbia, herbicidal action rating [8]: 1
- Sida, herbicidal action rating [9]: 2
- Amaranthus, herbicidal action rating [10]: 1
- Chenopodium, herbicidal action rating [11]: 3
- Stellaria, herbicidal action rating [12]: 2
- Veronica, herbicidal action rating [13]: 3
